Results on one substance are retold here after patent US20260284189A1, “TREATMENT OF NON-SMALL CELL LUNG CANCER” (ASTRAZENECA AB, priority 2023, published 2026).

For this assay, the system named is resectable non-small cell lung cancer (R-NSCLC). Put plainly: AEGEAN phase III: event-free survival (EFS) by blinded independent central review. Format: in vivo, human. From the text:
As used herein, the terms “event-free survival” or “EFS” refer to the time from randomization to the first of the following: a) local or distant recurrence as determined by BICR using RECIST 1.1 assessments; b) death due to any cause (event date is the date of death); c) PD that precludes surgery (event date is the date of this determination) or PD discovered and reported by the Investigator upon attempting surgery that prevents completion of surgery (event date is the date of the first attempt at surgery). Event-free survival can be analyzed using the log-rank test based on blinded independent central review (BICR) assessment using RECIST v1.1 and pathology review stratified by disease stage (Stage II versus Stage III) and by PD-L1 expression status (<1% versus >1%) on the mITT. The p-value can be obtained from the stratified log-rank test using the Efron (Hertz-Picciotto and Rockhill “Validity and efficiency of approximation methods for tied survival times in Cox regression.” Biometrics 1997; 53(3):1151-6.) approach for handling ties.
The AEGEAN (NCT03800134) study described herein is a phase III, double-blind, placebo-controlled, multi-center international study of assessed perioperative (i.e. neoadjuvant and adjuvant) durvalumab plus neoadjuvant chemotherapy for the treatment of patients with resectable stage II and stage III non-small cell lung cancer (R-NSCLC).
The study enrolled approximately 1300 patients and randomized approximately 800 eligible patients. Eligible patients had newly diagnosed, previously untreated, histologically or cytologically documented, resectable NSCLC (stage IIA to select [N2] stage IIIB according to the American Joint Committee on Cancer [AJCC] Cancer Staging Manual, version 8). Patients were randomized in a 1:1 ratio to receive either durvalumab plus a platinum-based chemotherapy before surgery followed by durvalumab post-surgery (Arm 1; a platinum-based chemotherapy plus durvalumab intravenously every three weeks (four cycles) before surgery, followed by durvalumab intravenously every four weeks (12 cycles)) or placebo plus a platinum-based chemotherapy before surgery followed by placebo post-surgery (Arm 2; a platinum-based chemotherapy plus placebo intravenously every three weeks (four cycles) before surgery, followed by placebo intravenously every four weeks (12 cycles)). Patients were also stratified by disease stage (Stage II versus Stage III) and by PD-L1 expression status (<1% versus ≥1%).
The two primary efficacy endpoints in this study were event-free survival (EFS; per blinded independent central review [BICR]) and pathological complete response (pCR; evaluated centrally). […]
Comparisons between the study arms were analyzed using stratified log-rank tests. […]

Where [1] appears, read: mITT subgroup, durvalumab versus placebo, unstratified Cox model.

For “Durvalumab: antibody that selectively binds PD-L1 and blocks binding of PD-L1 to PD-1 and CD80; arm given with platinum-based chemotherapy before surgery”, the “EFS stratified hazard ratio, durvalumab arm versus placebo arm” value (mITT N=740, BICR, first interim analysis, 31.9% maturity, data cut-off Nov. 10, 2022) stood at 0.68. Under setting [1], the “EFS HR, planned neoadjuvant platinum agent carboplatin” value is 0.73 and the “EFS HR, planned neoadjuvant platinum agent cisplatin” value worked out at 0.59. For the setting “mITT, BICR, first interim analysis, 31.9% maturity”, the “median EFS” value was “not reached”.
